Test system: Phytophthora infestans
Format: in vivo
Conditions: single active ingredient, 3.1 ppm in the spray liquor; tomato plants infected next day, evaluated after 6 days

Row | Compound | Efficacy in % of the untreated control [%]
1 | O=C(Nc1ccccc1-c1ccc(F)cc1)c1cccnc1Cl [Compound I.1] | 0
2 | COCC(=O)N(c1c(C)cccc1C)C(C)C(=O)OC (centres unmarked) [Compound IV.3, metalaxyl] | 0
